Source: the NIST ThermoML archive (doi:10.1016/j.jct.2014.02.016)
± gives the expanded uncertainty stated by the source.

Columns and labels:
[1] = heat capacity at constant pressure per volume; xn = mol fraction of the nth substance listed; conditions: 100 kPa, Liquid, DSC Calorimetry, x1 = 0.244
[2] = refractive index (other wavelength) (dimensionless); xn = mol fraction of the nth substance listed; conditions: 100 kPa, Liquid, Wavelength=632.8 nm, Angle minimization by sell rotation

CCCCCCCCCCCCC [tridecane] + COC(=O)OC
heat capacity ([1]; 303.5 K): 2056000 ± 110000 J/K/m3
heat capacity ([1]; 303.6 K): 2019000 ± 110000 J/K/m3
heat capacity ([1]; 303.7 K): 1992000 ± 110000 J/K/m3
heat capacity ([1]; 303.8 K): 1969000 ± 100000 J/K/m3
heat capacity ([1]; 303.9 K): 1958000 ± 100000 J/K/m3
heat capacity ([1]; 304 K): 1946000 ± 100000 J/K/m3
heat capacity ([1]; 304.2 K): 1942000 ± 100000 J/K/m3
heat capacity ([1]; 304.6 K): 1920000 ± 100000 J/K/m3
heat capacity ([1]; 305 K): 1910000 ± 100000 J/K/m3
heat capacity ([1]; 306 K): 1891000 ± 100000 J/K/m3
heat capacity ([1]; 307 K): 1874000 ± 100000 J/K/m3
heat capacity ([1]; 308 K): 1870000 ± 100000 J/K/m3
heat capacity ([1]; 309 K): 1860000 ± 99000 J/K/m3
heat capacity ([1]; 310 K): 1850000 ± 99000 J/K/m3
heat capacity ([1]; 311 K): 1843000 ± 98000 J/K/m3
heat capacity ([1]; 312.1 K): 1839000 ± 98000 J/K/m3
heat capacity ([1]; 313 K): 1837000 ± 98000 J/K/m3
heat capacity ([1]; 315 K): 1830000 ± 98000 J/K/m3
heat capacity ([1]; 316 K): 1827000 ± 98000 J/K/m3
heat capacity ([1]; 317 K): 1825000 ± 97000 J/K/m3
heat capacity ([1]; 318 K): 1824000 ± 97000 J/K/m3
heat capacity ([1]; 319.01 K): 1821000 ± 97000 J/K/m3
heat capacity ([1]; 320 K): 1819000 ± 97000 J/K/m3
heat capacity ([1]; 321 K): 1817000 ± 97000 J/K/m3
heat capacity ([1]; 322 K): 1815000 ± 97000 J/K/m3
heat capacity ([1]; 323 K): 1816000 ± 97000 J/K/m3
heat capacity ([1]; 324 K): 1813000 ± 97000 J/K/m3
heat capacity ([1]; 325 K): 1812000 ± 97000 J/K/m3
heat capacity ([1]; 326 K): 1810000 ± 97000 J/K/m3
heat capacity ([1]; 327 K): 1809000 ± 97000 J/K/m3
heat capacity ([1]; 328 K): 1809000 ± 97000 J/K/m3
heat capacity ([1]; 329 K): 1808000 ± 97000 J/K/m3
heat capacity ([1]; 330 K): 1806000 ± 96000 J/K/m3
heat capacity ([1]; 331 K): 1805000 ± 96000 J/K/m3
heat capacity ([1]; 332 K): 1805000 ± 96000 J/K/m3
heat capacity ([1]; 333 K): 1804000 ± 96000 J/K/m3
heat capacity ([1]; 334 K): 1802000 ± 96000 J/K/m3
heat capacity ([1]; 335 K): 1801000 ± 96000 J/K/m3
heat capacity ([1]; 336 K): 1802000 ± 96000 J/K/m3
heat capacity ([1]; 337 K): 1801000 ± 96000 J/K/m3
heat capacity ([1]; 338 K): 1798000 ± 96000 J/K/m3
heat capacity ([1]; 339 K): 1797000 ± 96000 J/K/m3
heat capacity ([1]; 340 K): 1799000 ± 96000 J/K/m3
heat capacity ([1]; 341.01 K): 1798000 ± 96000 J/K/m3
heat capacity ([1]; 342 K): 1799000 ± 96000 J/K/m3
refractive index ([2]; 293.35 K, x1 = 0.073): 1.3756 ± 0.0003
refractive index ([2]; 293.35 K, x1 = 0.57): 1.4085 ± 0.0003
refractive index ([2]; 294.57 K, x1 = 0.078): 1.3756 ± 0.0003
refractive index ([2]; 294.57 K, x1 = 0.553): 1.4072 ± 0.0003
refractive index ([2]; 295.8 K, x1 = 0.084): 1.3756 ± 0.0003
refractive index ([2]; 295.8 K, x1 = 0.532): 1.4057 ± 0.0003
refractive index ([2]; 296.97 K, x1 = 0.091): 1.3757 ± 0.0003
refractive index ([2]; 296.97 K, x1 = 0.511): 1.4042 ± 0.0003
refractive index ([2]; 298.06 K, x1 = 0.099): 1.376 ± 0.0003
refractive index ([2]; 298.06 K, x1 = 0.492): 1.4028 ± 0.0003
refractive index ([2]; 299.12 K, x1 = 0.108): 1.3764 ± 0.0003
refractive index ([2]; 299.12 K, x1 = 0.467): 1.4011 ± 0.0003
refractive index ([2]; 299.84 K, x1 = 0.115): 1.3767 ± 0.0003
refractive index ([2]; 299.84 K, x1 = 0.452): 1.4 ± 0.0003
refractive index ([2]; 300.52 K, x1 = 0.124): 1.3772 ± 0.0003
refractive index ([2]; 300.52 K, x1 = 0.432): 1.3987 ± 0.0003
refractive index ([2]; 301.09 K, x1 = 0.132): 1.3777 ± 0.0003
refractive index ([2]; 301.09 K, x1 = 0.415): 1.3975 ± 0.0003
refractive index ([2]; 301.5 K, x1 = 0.141): 1.3783 ± 0.0003
refractive index ([2]; 301.5 K, x1 = 0.398): 1.3964 ± 0.0003
refractive index ([2]; 301.8 K, x1 = 0.147): 1.3787 ± 0.0003
refractive index ([2]; 301.8 K, x1 = 0.386): 1.3956 ± 0.0003
refractive index ([2]; 302.21 K, x1 = 0.158): 1.3795 ± 0.0003
refractive index ([2]; 302.21 K, x1 = 0.365): 1.3942 ± 0.0003
refractive index ([2]; 302.36 K, x1 = 0.165): 1.38 ± 0.0003
refractive index ([2]; 302.36 K, x1 = 0.356): 1.3936 ± 0.0003
refractive index ([2]; 302.48 K, x1 = 0.17): 1.3804 ± 0.0003
refractive index ([2]; 302.48 K, x1 = 0.348): 1.3931 ± 0.0004
refractive index ([2]; 302.56 K, x1 = 0.176): 1.3808 ± 0.0003
refractive index ([2]; 302.56 K, x1 = 0.341): 1.3926 ± 0.0003
refractive index ([2]; 302.63 K, x1 = 0.18): 1.3811 ± 0.0003
refractive index ([2]; 302.63 K, x1 = 0.335): 1.3922 ± 0.0003
refractive index ([2]; 302.7 K, x1 = 0.184): 1.3814 ± 0.0003
refractive index ([2]; 302.7 K, x1 = 0.329): 1.3918 ± 0.0003
refractive index ([2]; 302.79 K, x1 = 0.191): 1.382 ± 0.0003
refractive index ([2]; 302.79 K, x1 = 0.317): 1.391 ± 0.0003
refractive index ([2]; 302.83 K, x1 = 0.195): 1.3823 ± 0.0003
refractive index ([2]; 302.83 K, x1 = 0.311): 1.3906 ± 0.0003
refractive index ([2]; 302.86 K, x1 = 0.202): 1.3828 ± 0.0003
refractive index ([2]; 302.86 K, x1 = 0.303): 1.3901 ± 0.0003
refractive index ([2]; 302.89 K, x1 = 0.206): 1.3831 ± 0.0003
refractive index ([2]; 302.89 K, x1 = 0.297): 1.3897 ± 0.0003
refractive index ([2]; 302.91 K, x1 = 0.211): 1.3835 ± 0.0003
refractive index ([2]; 302.91 K, x1 = 0.291): 1.3893 ± 0.0003
refractive index ([2]; 302.92 K, x1 = 0.214): 1.3837 ± 0.0003
refractive index ([2]; 302.92 K, x1 = 0.289): 1.3891 ± 0.0003
refractive index ([2]; 302.93 K, x1 = 0.218): 1.384 ± 0.0003
refractive index ([2]; 302.93 K, x1 = 0.284): 1.3888 ± 0.0003
refractive index ([2]; 302.94 K, x1 = 0.223): 1.3844 ± 0.0003
refractive index ([2]; 302.94 K, x1 = 0.226): 1.3846 ± 0.0003
refractive index ([2]; 302.94 K, x1 = 0.275): 1.3882 ± 0.0003
refractive index ([2]; 302.94 K, x1 = 0.278): 1.3884 ± 0.0003
refractive index ([2]; 304.39 K, x1 = 0.097): 1.3728 ± 0.0003
refractive index ([2]; 304.39 K, x1 = 0.196): 1.3818 ± 0.0003
refractive index ([2]; 304.39 K, x1 = 0.297): 1.389 ± 0.0003
refractive index ([2]; 304.39 K, x1 = 0.401): 1.3953 ± 0.0003
refractive index ([2]; 304.39 K, x1 = 0.497): 1.4002 ± 0.0003
refractive index ([2]; 304.39 K, x1 = 0.583): 1.404 ± 0.0003
refractive index ([2]; 304.39 K, x1 = 0.71): 1.4094 ± 0.0003
refractive index ([2]; 304.39 K, x1 = 0.795): 1.4126 ± 0.0003
refractive index ([2]; 304.39 K, x1 = 0.899): 1.4163 ± 0.0003
